Laboratory results from US20260053811A1, “METHODS OF TREATING HYPERTENSION IN OBESE SUBJECTS” (Mineralys Therapeutics, Inc., priority 2022, published 2026).
Marks after values point to notes of the source that are not given here.

System: hypertensive subjects
Assay: Seated automated office blood pressure (AOBP) in randomized, placebo-controlled, dose-ranging study
Format: in vivo, human
Parameters: Difference from placebo in change in blood pressure: unit not given here
Procedure: A randomized, double-blinded, placebo-controlled, dose-ranging, multicenter study was conducted to evaluate the effect of orally administered Compound A HBr on blood pressure for the treatment of hypertension in male and female subjects ≥18 years of age.
The study consists of two parts. For enrollment into Part 1 of the study, a subject's value of plasma renin activity (PRA) must be ≤1 ng/mL/h based on morning measurement. If the value of PRA >1 ng/mL/h based on morning measurement, then subjects may be eligible to enter Part 2 of the study.
For Part 1, 163 enrolled subjects ≥18 years of age were randomized into 6 equal treatment groups (1:1:1:1:1:1) to 12.5 mg BID, 25 mg BID, 12.5 mg QD, 50 mg QD, 100 mg QD, or placebo. After a review of interim clinical data, the 2 lowest dose levels (12.5 mg QD and 12.5 mg BID) were stopped for future randomization due to a lack of consistent meaningful reduction of blood pressure, but the patients randomized to that point remained in the study through completion. Thus, after the review of interim clinical data, subjects were randomized into 4 equal treatment groups (1:1:1:1) to 25 mg BID, 50 mg QD, 100 mg QD, or placebo.
For Part 2, 36 enrolled subjects ≥18 years of age were randomized (5:1) to either 100 mg QD Compound A HBr or placebo such that the Compound A HBr treatment group consisted of approximately 30 subjects and the placebo treatment group will consist of approximately 6 subjects.
Subjects orally administered the assigned study drug (Compound A HBr or placebo) according to the assigned dosing regimen for 8 weeks beginning on Study Day 1. All subjects in Part 1 (regardless of dosing group) received BID dosing to preserve the integrity of the blind; active drug is administered as the morning dose for all QD dose groups. Subjects returned to the research facility or were seen by the clinical investigator or approved home health care professional at the end of Study Weeks 1, 2, 3, 4, 5, 6, 7, and 8 (±2 days) for protocol-defined efficacy and safety assessments and procedures, assessment of adverse events (AEs), and confirmation of compliance with study drug usage. Subjects also completed a telephone visit and blood pressure (BP) check at home approximately 3 days post last dose of study drug. Subjects attended up to 14 full clinic visits, including a pre-Screening visit, a Screening/start of Placebo Run-in visit, a second visit during Placebo Run-in, a clinic visit to initiate the ABPM procedure, a Randomization visit, 8 weekly visits during double-blind treatment, and an end-of-study visit scheduled 4 weeks after the last study treatment for final efficacy and safety assessments.
An automated oscillometric sphygmomanometer device was used to measure the subjects' systolic and diastolic blood pressure in office after approximately 5 minutes of rest in the seated position.
The primary endpoint is the change in office-measured (mean of last 2 of 5 unattended measurements using an automated oscillometric sphygmomanometer device after approximately 5 minutes of rest in the seated position) systolic blood pressure (SBP) from baseline to the end of Study Week 8.
Secondary endpoints of this study were: • (a) Change in 24-hour ambulatory blood pressure monitoring (ABPM) parameters (systolic and diastolic) from baseline to the end of Study Week 7. • (b) Change in office-measured SBP from baseline to the end of Study Weeks 1, 2, 3, 4, 5, 6, and 7. • (c) Change in office-measured diastolic blood pressure (DBP) from baseline to the end of Study Weeks 1, 2, 3, 4, 5, 6, 7, and 8. • (d) Proportion of subjects who achieve office-measured BP of ≤130/80 mm Hg by the end of Study Week 8.

SMILES: CC(=O)N[C@H]1CC[C@H](NC(=O)CN2CCN(c3nncc(-c4ccc(C)cc4)n3)CC2)CC1 [Compound A HBr]
- Difference from placebo in change in blood pressure (25 mg BID, Thiazide Yes): −8.3
- Seated AOBP DBP change from baseline (CFB), Mean (SD) (25 mg BID, Week 1, Part 1, FAS): −2.22 (5.68) mmHg
- Seated AOBP DBP, Mean (SD) (25 mg BID, Week 1, Part 1, FAS): 76.70 (9.28) mmHg
- Seated AOBP SBP change from baseline (CFB), Mean (SD) (25 mg BID, Week 1, Part 1, FAS): −6.57 (10.78) mmHg
- Seated AOBP SBP, Mean (SD) (25 mg BID, Week 1, Part 1, FAS): 134.37 (14.17) mmHg
- Seated AOBP DBP change from baseline (CFB), Mean (SD) (25 mg BID, Week 2, Part 1, FAS): −2.42 (8.03) mmHg
- Seated AOBP DBP, Mean (SD) (25 mg BID, Week 2, Part 1, FAS): 76.50 (10.74) mmHg
- Seated AOBP SBP change from baseline (CFB), Mean (SD) (25 mg BID, Week 2, Part 1, FAS): −6.37 (13.43) mmHg
- Seated AOBP SBP, Mean (SD) (25 mg BID, Week 2, Part 1, FAS): 134.57 (17.75) mmHg
- Seated AOBP DBP change from baseline (CFB), Mean (SD) (25 mg BID, Week 3, Part 1, FAS): −0.55 (14.99) mmHg
- Seated AOBP DBP, Mean (SD) (25 mg BID, Week 3, Part 1, FAS): 78.72 (15.35) mmHg
- Seated AOBP SBP change from baseline (CFB), Mean (SD) (25 mg BID, Week 3, Part 1, FAS): −5.34 (18.35) mmHg
- Seated AOBP SBP, Mean (SD) (25 mg BID, Week 3, Part 1, FAS): 136.34 (19.78) mmHg
- LSM Δ with Placebo, seated AOBP DBP (MMRM) (25 mg BID, Week 4, Part 1, FAS): −5.94 mmHg
- Modelled (MMRM) LSM (SEM) change from baseline, seated AOBP DBP (25 mg BID, Week 4, Part 1, FAS): −6.47 (1.41) mmHg
- Seated AOBP DBP change from baseline (CFB), Mean (SD) (25 mg BID, Week 4, Part 1, FAS): −5.80 (7.01) mmHg
- Seated AOBP DBP, Mean (SD) (25 mg BID, Week 4, Part 1, FAS): 73.26 (7.79) mmHg
- Seated AOBP SBP change from baseline (CFB), Mean (SD) (25 mg BID, Week 4, Part 1, FAS): −9.63 (12.34) mmHg
- Seated AOBP SBP, Mean (SD) (25 mg BID, Week 4, Part 1, FAS): 131.85 (13.59) mmHg
- Seated AOBP DBP change from baseline (CFB), Mean (SD) (25 mg BID, Week 5, Part 1, FAS): −2.82 (8.82) mmHg
- Seated AOBP DBP, Mean (SD) (25 mg BID, Week 5, Part 1, FAS): 76.29 (9.91) mmHg
- Seated AOBP SBP change from baseline (CFB), Mean (SD) (25 mg BID, Week 5, Part 1, FAS): −9.16 (15.72) mmHg
- Seated AOBP SBP, Mean (SD) (25 mg BID, Week 5, Part 1, FAS): 132.25 (16.30) mmHg
- Seated AOBP DBP change from baseline (CFB), Mean (SD) (25 mg BID, Week 6, Part 1, FAS): −3.07 (8.82) mmHg
- Seated AOBP DBP, Mean (SD) (25 mg BID, Week 6, Part 1, FAS): 76.04 (10.57) mmHg
- Seated AOBP SBP change from baseline (CFB), Mean (SD) (25 mg BID, Week 6, Part 1, FAS): −7.09 (11.66) mmHg
- Seated AOBP SBP, Mean (SD) (25 mg BID, Week 6, Part 1, FAS): 134.32 (13.96) mmHg
- Seated AOBP DBP change from baseline (CFB), Mean (SD) (25 mg BID, Week 7, Part 1, FAS): −4.87 (8.84) mmHg
- Seated AOBP DBP, Mean (SD) (25 mg BID, Week 7, Part 1, FAS): 73.89 (10.76) mmHg
- Seated AOBP SBP change from baseline (CFB), Mean (SD) (25 mg BID, Week 7, Part 1, FAS): −11.00 (13.60) mmHg
- Seated AOBP SBP, Mean (SD) (25 mg BID, Week 7, Part 1, FAS): 130.74 (15.42) mmHg
- LSM Δ from Placebo, change from baseline in seated AOBP SBP (MMRM) (25 mg BID, Week 8, Part 1, FAS): −6.97 mmHg
- LSM Δ with Placebo, seated AOBP DBP (MMRM) (25 mg BID, Week 8, Part 1, FAS): −2.49 mmHg
- Modelled (MMRM) LSM (SEM) change from baseline, seated AOBP DBP (25 mg BID, Week 8, Part 1, FAS): −4.12 (1.68) mmHg
- Modelled (MMRM) LSM (SEM) change from baseline, seated AOBP SBP (25 mg BID, Week 8, Part 1, FAS): −11.07 (2.65) mmHg
- Seated AOBP DBP change from baseline (CFB), Mean (SD) (25 mg BID, Week 8, Part 1, FAS): −3.68 (11.71) mmHg
- Seated AOBP DBP, Mean (SD) (25 mg BID, Week 8, Part 1, FAS): 75.43 (13.06) mmHg
- Seated AOBP SBP change from baseline (CFB), Mean (SD) (25 mg BID, Week 8, Part 1, FAS): −10.13 (14.02) mmHg
- Seated AOBP SBP, Mean (SD) (25 mg BID, Week 8, Part 1, FAS): 131.29 (16.59) mmHg
- Subjects with seated AOBP SBP/DBP ≤130/80 mmHg: No (25 mg BID, Week 8, Part 1, FAS): 17 (56.7) n (%)
- Subjects with seated AOBP SBP/DBP ≤130/80 mmHg: Yes (25 mg BID, Week 8, Part 1, FAS): 13 (43.3) n (%)
- Difference from placebo in change in blood pressure (50 mg QD, BMI 25-30): 2.0
- Difference from placebo in change in blood pressure (50 mg QD, BMI >30): −16.6*
- Mean placebo-adjusted reduction in AOBP SBP (50 mg QD, Part 1, Week 8): 9.58 mmHg
- Placebo-adjusted reduction in AOBP DBP, thiazide diuretic use at baseline (50 mg QD, Part 1, Week 8): −7.7 mmHg
- Placebo-adjusted reduction in AOBP SBP from baseline, by baseline AOBP SBP tertile (50 mg QD, Part 1, Week 8): −19.9 mmHg
